Test results taken from PubChem BioAssay AID248 (DTP/NCI, 2004).
Values joined by “and” are separate entries in the source; they are usually repeats but may differ in a detail not shown here. Equal values may be shown once. Toxic doses and inconclusive results are not listed. Cut-off read from the data, not from the text of the source: active = T/C of 150% or more; inactive = T/C below 125%.

Test system: L1210 leukemia ip in BDF1 mice, survival T/C
Test: NCI In Vivo Anticancer Drug Screen. Data for tumor model L1210 Leukemia (intraperitoneal) in B6D2F1 (BDF1) mice
Details: endpoint: mean survival time, higher = longer survival
Outline: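 Mice bearing the transplanted tumor received compound or vehicle. Survival of the treated group was divided by that of the vehicle-treated control group to give the ratio.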

[1] = dose: 100.0 mg/kg/injection, schedule: Q01DX001 (ip), vehicle: carboxymethylcellulose (CMC)
[2] = dose: 200.0 mg/kg/injection, schedule: Q01DX001 (ip), vehicle: carboxymethylcellulose (CMC)
[3] = dose: 100.0 mg/kg/injection, schedule: Q04DX003 (ip), vehicle: Klucel (hydroxypropylcellulose) (HPC)
[4] = dose: 200.0 mg/kg/injection, schedule: Q04DX003 (ip), vehicle: Klucel (hydroxypropylcellulose) (HPC)
[5] = dose: 400.0 mg/kg/injection, schedule: Q04DX003 (ip), vehicle: Klucel (hydroxypropylcellulose) (HPC)
[6] = dose: 100.0 mg/kg/injection, schedule: Q01DX009 (ip), vehicle: saline with Tween-80
[7] = dose: 100.0 mg/kg/injection, schedule: Q04DX003 (ip), vehicle: saline with Tween-80
[8] = dose: 200.0 mg/kg/injection, schedule: Q01DX009 (ip), vehicle: saline with Tween-80
[9] = dose: 200.0 mg/kg/injection, schedule: Q04DX003 (ip), vehicle: saline with Tween-80
[10] = dose: 400.0 mg/kg/injection, schedule: Q01DX009 (ip), vehicle: saline with Tween-80
[11] = dose: 400.0 mg/kg/injection, schedule: Q04DX003 (ip), vehicle: saline with Tween-80
[12] = dose: 100.0 mg/kg/injection, schedule: Q04DX002 (ip), vehicle: Klucel (hydroxypropylcellulose) (HPC)
[13] = dose: 200.0 mg/kg/injection, schedule: Q04DX002 (ip), vehicle: Klucel (hydroxypropylcellulose) (HPC)
[14] = dose: 400.0 mg/kg/injection, schedule: Q04DX002 (ip), vehicle: Klucel (hydroxypropylcellulose) (HPC)
[15] = dose: 100.0 mg/kg/injection, schedule: Q01DX009 (ip), vehicle: Klucel (hydroxypropylcellulose) (HPC)
[16] = dose: 200.0 mg/kg/injection, schedule: Q01DX009 (ip), vehicle: Klucel (hydroxypropylcellulose) (HPC)
[17] = dose: 400.0 mg/kg/injection, schedule: Q01DX009 (ip), vehicle: Klucel (hydroxypropylcellulose) (HPC)

Measured: T/C

COC1Nc2cc3ccccc3cc2-c2ccccc21 (configuration not stated)
inactive: [1] 97 % of control | [2] 97 % of control

CC(C)=CCCNC(=O)NS(=O)(=O)c1ccc(C)cc1
inactive: [3] 99 % of control | [4] 101 % of control | [5] 97 % of control

C1C2C3OC3C1C1C2C2C3CC(C4OC34)C12 (configuration not stated)
inactive: [6] 94 % of control | [7] 100 % of control | [8] 94 % of control | [9] 101 % of control | [10] 94 % of control | [11] 97 % of control

CC(C)(C)OC(=O)N/N=C/c1ccc2c(c1)CCC2
inactive: [7] 100 % of control | [9] 100 % of control | [11] 94 % of control

CCCCCCCCCCCCN=C(N)N/C(N)=N/S(=O)(=O)c1ccc(OCCC)cc1
inactive: [12] 106 % of control | [13] 100 % of control | [14] 95 % of control

Nc1ccc(N2CCNCC2)cc1
inactive: dose: 50.0 mg/kg/injection, schedule: Q01DX009 (ip), vehicle: saline 101 % of control | dose: 100.0 mg/kg/injection, schedule: Q01DX009 (ip), vehicle: saline 107 % of control | dose: 200.0 mg/kg/injection, schedule: Q01DX009 (ip), vehicle: saline 111 % of control

CC(/C=N/N/C(N)=N\N)=N\N/C(N)=N/N
inactive: dose: 15.0 mg/kg/injection, schedule: Q01DX Z (ip), vehicle: methylcellulose (MC) 105 % of control | dose: 30.0 mg/kg/injection, schedule: Q01DX Z (ip), vehicle: methylcellulose (MC) 103 % of control | dose: 60.0 mg/kg/injection, schedule: Q01DX Z (ip), vehicle: methylcellulose (MC) 98 % of control | dose: 120.0 mg/kg/injection, schedule: Q01DX Z (ip), vehicle: methylcellulose (MC) 104 % of control | dose: 240.0 mg/kg/injection, schedule: Q01DX Z (ip), vehicle: methylcellulose (MC) 98 % of control

Cc1ccc(CNc2cc(C)ccn2)cc1
inactive: dose: 50.0 mg/kg/injection, schedule: Q01DX009 (ip), vehicle: saline with Tween-80 96 % of control | [6] 101 % of control | [8] 101 % of control

C=CCc1cc(OC)c(OC)c(OC)c1
inactive: [6] 104 % of control | [8] 101 % of control | [10] 101 % of control

Cc1c2c(cc3c4ccccc4n(CC4CO4)c13)C(c1ccc(Cl)cc1)=NCC2 (configuration not stated)
inactive: dose: 37.5 mg/kg/injection, schedule: Q04DX003 (ip), vehicle: water 104 % of control | dose: 75.0 mg/kg/injection, schedule: Q04DX003 (ip), vehicle: water 100 % of control | dose: 150.0 mg/kg/injection, schedule: Q04DX003 (ip), vehicle: water 92 % of control | dose: 300.0 mg/kg/injection, schedule: Q04DX003 (ip), vehicle: water 96 % of control

Clc1ccc(C[P+](c2ccccc2)(c2ccccc2)c2ccccc2)cc1Cl
inactive: dose: 0.62 mg/kg/injection, schedule: Q01DX009 (ip), vehicle: acetone 98 % of control | dose: 1.25 mg/kg/injection, schedule: Q01DX009 (ip), vehicle: acetone 101 % of control | dose: 2.5 mg/kg/injection, schedule: Q01DX009 (ip), vehicle: acetone 101 % of control | dose: 2.5 mg/kg/injection, schedule: Q04DX003 (ip), vehicle: acetone 94 % of control | dose: 3.6 mg/kg/injection, schedule: Q01DX009 (ip), vehicle: saline with Tween-80 97 % of control | dose: 5.0 mg/kg/injection, schedule: Q01DX001 (ip), vehicle: acetone 90 % of control | dose: 5.6 mg/kg/injection, schedule: Q01DX009 (ip), vehicle: saline with Tween-80 106 % of control | dose: 8.4 mg/kg/injection, schedule: Q01DX009 (ip), vehicle: saline with Tween-80 102 % of control | dose: 10.0 mg/kg/injection, schedule: Q01DX001 (ip), vehicle: acetone 97 % of control

CCOC(=O)c1ccc(C(C)=O)o1
inactive: [3] 100 % of control | [4] 106 % of control | [5] 94 % of control

CCOC(=O)c1oc2c(C(C)=O)c(O)ccc2c1C
inactive: [12] 101 % of control and 103 % of control and 92 % of control | [13] 101 % of control and 103 % of control and 92 % of control | [14] 108 % of control | dose: 800.0 mg/kg/injection, schedule: Q04DX002 (ip), vehicle: Klucel (hydroxypropylcellulose) (HPC) 93 % of control and 95 % of control

O=C1OC(OC(=O)c2ccccc2)C(Nc2ccccc2)=C1Br (configuration not stated)
inactive: [7] 91 % of control | [9] 87 % of control | [11] 94 % of control

Cc1cccc(NC(=O)NC2CCC(CC3CCCCC3)CC2)c1 (configuration not stated)
inactive: [15] 106 % of control | [3] 97 % of control | [16] 97 % of control | [4] 101 % of control | [17] 95 % of control | [5] 101 % of control

CC1(C)OCC(/C=C/C=N/Nc2ccc([N+](=O)[O-])cc2)O1 (configuration not stated)
inactive: [7] 94 % of control | [9] 96 % of control | [11] 91 % of control

Cc1cc(C)n2[nH]c(=O)cc2n1
inactive: dose: 100.0 mg/kg/injection, schedule: Q04DX002 (ip), vehicle: saline with Tween-80 98 % of control | dose: 200.0 mg/kg/injection, schedule: Q04DX002 (ip), vehicle: saline with Tween-80 104 % of control | dose: 400.0 mg/kg/injection, schedule: Q04DX002 (ip), vehicle: saline with Tween-80 106 % of control

N#Cc1c(=O)[nH]c2ccccc2[n+]1[O-]
inactive: dose: 50.0 mg/kg/injection, schedule: Q01DX009 (ip), vehicle: Klucel (hydroxypropylcellulose) (HPC) 107 % of control | [15] 104 % of control

C=C(C)COc1c(C)c(C)c(OCC(=C)C)c(C)c1C
inactive: dose: 100.0 mg/kg/injection, schedule: Q01DX001 (ip), vehicle: DMSO 89 % of control | dose: 400.0 mg/kg/injection, schedule: Q01DX001 (ip), vehicle: DMSO 94 % of control

[CH3][Hg][O]C(C)=O
inactive: dose: 3.0 mg/kg/injection, schedule: Q01DX009 (ip), vehicle: Klucel (hydroxypropylcellulose) (HPC) 86 % of control | dose: 3.12 mg/kg/injection, schedule: Q04DX003 (ip), vehicle: Klucel (hydroxypropylcellulose) (HPC) 104 % of control | dose: 6.0 mg/kg/injection, schedule: Q01DX009 (ip), vehicle: Klucel (hydroxypropylcellulose) (HPC) 91 % of control | dose: 6.25 mg/kg/injection, schedule: Q04DX003 (ip), vehicle: Klucel (hydroxypropylcellulose) (HPC) 96 % of control | dose: 12.5 mg/kg/injection, schedule: Q04DX003 (ip), vehicle: Klucel (hydroxypropylcellulose) (HPC) 96 % of control and 97 % of control

CC(CN=Cc1ccc(N(CCCl)CCCl)cc1)N=Cc1ccc(N(CCCl)CCCl)cc1 (configuration not stated)
inactive: dose: 50.0 mg/kg/injection, schedule: Q01DX001 (ip), vehicle: carboxymethylcellulose (CMC) 109 % of control | [1] 111 % of control | [2] 109 % of control | dose: 400.0 mg/kg/injection, schedule: Q01DX001 (ip), vehicle: carboxymethylcellulose (CMC) 111 % of control

COC(=O)c1cccc(C(=O)CC(=O)c2ccccc2)c1
inactive: [15] 90 % of control | [16] 95 % of control | [17] 88 % of control
